Measured values from the supplement of paper PMC11208160.

Assay: recombinant UMI read abundance after kanamycin selection (control-corrected) (log10(CPM+1)); higher = more efficient recombination; extreme values may be limits of the assay; sequences stand for … in AGTGCAGAGAAAATCGGCCAGTTTTCTCTGCCTGCAGTCCGCATGCCGTGGGACCCCTTGGGTTCTAACCTGTTGCCTAGATTTATGCAGCGGACTGCCTTTCTCCCAAAGTGATAAACCGG…AGGTTGGTTTCACT; site = the 11-nt donor
How it was run: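 In a pooled Escherichia coli screen for the IS621 bridge recombinase, donor and donor-binding-loop pairs were each placed with a 12-nt UMI on a plasmid bearing a promoterless kanamycin gene. This library was co-electroporated with a target plasmid encoding a fixed target and T7-inducible recombinase, and cells were plated either on IPTG (0.07 mM) plus kanamycin or without selection, in two replicates each. Recombinant UMIs were PCR-amplified across the donor–target junction and sequenced, and counts were converted to CPM, averaged over replicates, scaled by control-derived factors and reported as log10(CPM+1).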
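Note: IS621 bridge recombinase in Escherichia coli cells against a fixed T5 target plasmid.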

Sequence | recombinant UMI read abundance (log10)
GCCAAGCCATGGACCGGTTTTCCCGGTAATCCGTATTTGGG (site GCAAAGCCTCC) | 0.00342
GCCAAGCCATGGACCGGTTTTCCCGGTAATCCGTATTTGGG (site GCCAAGCCTCC) | 0.0135
GCCAAGCCATGGACCGGTTTTCCCGGTAATCCGTATTTGGG (site GCGAAGCCTCC) | 0
GCCAAGCCATGGACCGGTTTTCCCGGTAATCCGTATTTGGG (site GCTAAGCCTCC) | 0
GCCAATCCATGGACCGGTTTTCCCGGTAATCCGTATTTGAA (site GACAATCCTTT) | 0.01
GCCAATCCATGGACCGGTTTTCCCGGTAATCCGTATTTGAA (site GCCAATCCTTT) | 0.53
GCCAATCCATGGACCGGTTTTCCCGGTAATCCGTATTTGAA (site GGCAATCCTTT) | 0
GCCAATCCATGGACCGGTTTTCCCGGTAATCCGTATTTGAA (site GTCAATCCTTT) | 0.00267
GCCACAGCATGGACCGGTTTTCCCGGTAATCCGTATTTGTT (site GCCACAGCTAA) | 1.48
GCCACCCCATGGACCGGTTTTCCCGGTAATCCGTATTTGTA (site GCCACACCTTA) | 0.0331
GCCACCCCATGGACCGGTTTTCCCGGTAATCCGTATTTGTA (site GCCACCCCTTA) | 0
GCCACCCCATGGACCGGTTTTCCCGGTAATCCGTATTTGTA (site GCCACGCCTTA) | 0
GCCACCCCATGGACCGGTTTTCCCGGTAATCCGTATTTGTA (site GCCACTCCTTA) | 0.0101
GCCACCGCATGGACCGGTTTTCCCGGTAATCCGTATTTGCG (site ACCACCGCTCG) | 0.439
GCCACCGCATGGACCGGTTTTCCCGGTAATCCGTATTTGCG (site CCCACCGCTCG) | 0.0179
GCCACCGCATGGACCGGTTTTCCCGGTAATCCGTATTTGCG (site GCCACCGCTCG) | 0.939
GCCACCGCATGGACCGGTTTTCCCGGTAATCCGTATTTGCG (site TCCACCGCTCG) | 0.00586
GCCACGCCATGGACCGGTTTTCCCGGTAATCCGTATTTGTT (site GCCACGCCTAA) | 0.0554
GCCACGCCATGGACCGGTTTTCCCGGTAATCCGTATTTGTT (site GCCACGCCTCA) | 0.0173

Sequence | recombinant UMI read abundance (log10)
GCCACGCCATGGACCGGTTTTCCCGGTAATCCGTATTTGTT (site GCCACGCCTGA) | 0
GCCACGCCATGGACCGGTTTTCCCGGTAATCCGTATTTGTT (site GCCACGCCTTA) | 0.00385
GCCACGTCATGGACCGGTTTTCCCGGTAATCCGTATTTGTA (site GCCACGACTTA) | 0.0796
GCCACGTCATGGACCGGTTTTCCCGGTAATCCGTATTTGTA (site GCCACGCCTTA) | 0.0201
GCCACGTCATGGACCGGTTTTCCCGGTAATCCGTATTTGTA (site GCCACGGCTTA) | 0
GCCACGTCATGGACCGGTTTTCCCGGTAATCCGTATTTGTA (site GCCACGTCTTA) | 2.47
GCCACTGCATGGACCGGTTTTCCCGGTAATCCGTATTTGCC (site GCAACTGCTGG) | 1.19
GCCACTGCATGGACCGGTTTTCCCGGTAATCCGTATTTGCC (site GCCACTGCTGG) | 1.63
GCCACTGCATGGACCGGTTTTCCCGGTAATCCGTATTTGCC (site GCGACTGCTGG) | 0
GCCACTGCATGGACCGGTTTTCCCGGTAATCCGTATTTGCC (site GCTACTGCTGG) | 0
GCCACTTCATGGACCGGTTTTCCCGGTAATCCGTATTTGTT (site GCCACTTCTAA) | 0.855
GCCAGACCATGGACCGGTTTTCCCGGTAATCCGTATTTGGA (site GCCAGACCTTC) | 0.0205
GCCAGTCCATGGACCGGTTTTCCCGGTAATCCGTATTTGAT (site GCCAGTCCTAT) | 0.00932
GCCATACCATGGACCGGTTTTCCCGGTAATCCGTATTTGTG (site GCCATACCTCA) | 0.00697
GCCATGCCATGGACCGGTTTTCCCGGTAATCCGTATTTGTA (site GCCAAGCCTTA) | 0.00915
GCCATGCCATGGACCGGTTTTCCCGGTAATCCGTATTTGTA (site GCCACGCCTTA) | 0.0146
GCCATGCCATGGACCGGTTTTCCCGGTAATCCGTATTTGTA (site GCCAGGCCTTA) | 0.00785
GCCATGCCATGGACCGGTTTTCCCGGTAATCCGTATTTGTA (site GCCATGCCTTA) | 1.26
GCCCCGCCATGGACCGGTTTTCCCGGTAATCCGTATTTGTA (site GCCACGCCTTA) | 0.324

Sequence | recombinant UMI read abundance (log10)
GCCCCGCCATGGACCGGTTTTCCCGGTAATCCGTATTTGTA (site GCCCCGCCTTA) | 0.478
GCCCCGCCATGGACCGGTTTTCCCGGTAATCCGTATTTGTA (site GCCGCGCCTTA) | 0.0226
GCCCCGCCATGGACCGGTTTTCCCGGTAATCCGTATTTGTA (site GCCTCGCCTTA) | 0.00782
GCCCGAGCATGGACCGGTTTTCCCGGTAATCCGTATTTGAA (site GCCCGAGCTTT) | 1.82
GCCCTCGCATGGACCGGTTTTCCCGGTAATCCGTATTTGAC (site GCCCTCGCTGT) | 2.61
GCCGATACATGGACCGGTTTTCCCGGTAATCCGTATTTGTA (site GCCGATACTTA) | 1.91
GCCGGCTCATGGACCGGTTTTCCCGGTAATCCGTATTTGGA (site GCCGGCTCTTC) | 0.632
GCCGTATCATGGACCGGTTTTCCCGGTAATCCGTATTTGAA (site GCCGTATCTTT) | 2.31
GCCTACTCATGGACCGGTTTTCCCGGTAATCCGTATTTGGA (site GCCTACTCTTC) | 1.91
GCCTCCGCATGGACCGGTTTTCCCGGTAATCCGTATTTGAG (site GCCTCCGCTCT) | 0.364
GCCTCCTCATGGACCGGTTTTCCCGGTAATCCGTATTTGCT (site GCCTCCTCTAG) | 2.9
GCCTTAGCATGGACCGGTTTTCCCGGTAATCCGTATTTGCC (site GCCTTAGCTGG) | 0
GCGAAAACATGGACCGGTTTTCCCGGTAATCCGTATTTGCC (site GCGAAAACTAG) | 0
GCGAAAACATGGACCGGTTTTCCCGGTAATCCGTATTTGCC (site GCGAAAACTCG) | 0
GCGAAAACATGGACCGGTTTTCCCGGTAATCCGTATTTGCC (site GCGAAAACTGG) | 0
GCGAAAACATGGACCGGTTTTCCCGGTAATCCGTATTTGCC (site GCGAAAACTTG) | 0
GCGAAAACATGGACCGGTTTTCCCGGTAATCCGTATTTGCT (site ACGAAAACTAG) | 2.25
GCGAAAACATGGACCGGTTTTCCCGGTAATCCGTATTTGCT (site CCGAAAACTAG) | 0
GCGAAAACATGGACCGGTTTTCCCGGTAATCCGTATTTGCT (site GAGAAAACTAG) | 0
